We go through twelve compounds from article PMC9605737, “Identification of 6ω-cyclohexyl-2-(phenylamino carbonylmethylthio)pyrimidin-4(3H)-ones targeting the ZIKV NS5 RNA dependent RNA polymerase” (Frontiers in Chemistry, 2022).

The test system of one series is ZIKV. The experiment in a line: Plaque assay, anti-ZIKV activity in Vero cells. Particulars: for EC50: read-out: EC50 (anti-ZIKV activity, plaque formation). The class given is cell-based, Zika virus.
Series [1] can be described thus: MTT cytotoxicity assay in Vero cells. Type of series: cell-based, African green monkey. Particulars: African green monkey, triplicate, >200 = highest soluble concentration not reaching 50% cytotoxicity. The method, then:
(§1) MTT assay was used to detect the toxicity of the compound. Cells were seeded in 96-well plates and cultured overnight. Compounds with different concentrations were added and incubated for 96 h. Then, 20 μl of 5 mg/ml MTT (Sigma-Aldrich, United States) solution was added to each well and kept at 37°C for 4 h. Subsequently, 100 μl of 12% SDS-50% DMF (Sigma-Aldrich, United States) solution was added and incubated overnight at 37°C. After the crystalline formamidine was completely dissolved, the optical density (OD) value was measured using a microplate reader (BioTek, United States) with a wavelength of 570 nm and a reference wavelength of 630 nm.
(§2) The 50% effective concentration (EC50) and 50% cytotoxic concentration (CC50) of the compound were calculated according to the Reed and Muench method, inhibition rate of ZIKV RNA yield- [(1-drug treatment/positive control) × 100]. The data and graphs were processed using GraphPad Prism8 software, expressed as mean ± standard deviation (Mean ± SD), comparison between groups using ANOVA, p < 0.05 was considered statistically significant.

The subject of another series is Vero cells. The experiment in a line: MTT cytotoxicity assay in Vero cells. The class given is cell-based, African green monkey. The conditions noted are these: 96 h, triplicate, >200 = highest soluble concentration not reaching 50% cytotoxicity. The method, then:
as §1, §2

For series [2] the following is noted: Figure 3; ref Wu et al. (2017); cited from earlier work.
Another series relates to HCV. Also noted: method as in Wu et al. (2017). Particulars: Figure 3; ref Wu et al. (2017); read-out: EC50 (anti-HCV); cited from earlier work.
A further series concerns the target T1, ZIKV RdRp (Zika virus, UniProt A0A024B7W1).
T1 construct: we expressed and purified ZIKV RdRp domain; made in house; host or cells: Escherichia coli BL21 (DE3)
Also noted: method as in Sáez-Álvarez et al., 2019. Particulars: positive control drug; ref Sáez-Álvarez et al., 2019; cited from earlier work.

Where [3] appears, read: Zika virus, plaque assay, independently in triplicate.
[4] abbreviates: plaque assay, independently in triplicate.

Where two headings read alike, the source gives them in different places.

T1 sequence (A0A024B7W1 2793-3423): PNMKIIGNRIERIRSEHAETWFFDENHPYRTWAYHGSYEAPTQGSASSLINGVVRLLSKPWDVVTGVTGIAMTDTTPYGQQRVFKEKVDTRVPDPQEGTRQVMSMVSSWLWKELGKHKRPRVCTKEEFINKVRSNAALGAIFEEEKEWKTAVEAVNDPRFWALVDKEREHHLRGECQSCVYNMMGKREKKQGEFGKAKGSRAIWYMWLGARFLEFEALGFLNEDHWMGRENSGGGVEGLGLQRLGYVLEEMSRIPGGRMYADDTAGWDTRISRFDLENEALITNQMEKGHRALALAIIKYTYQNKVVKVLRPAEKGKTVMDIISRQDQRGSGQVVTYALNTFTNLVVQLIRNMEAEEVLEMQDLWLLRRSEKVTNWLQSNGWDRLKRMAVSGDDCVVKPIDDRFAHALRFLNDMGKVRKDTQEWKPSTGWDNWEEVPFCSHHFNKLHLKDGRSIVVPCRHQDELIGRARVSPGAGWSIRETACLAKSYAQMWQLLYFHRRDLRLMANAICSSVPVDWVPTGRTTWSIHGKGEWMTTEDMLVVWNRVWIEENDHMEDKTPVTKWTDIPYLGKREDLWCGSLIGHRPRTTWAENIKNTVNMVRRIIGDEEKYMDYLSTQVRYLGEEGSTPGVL

As for `CCc1c(C2CCCCC2)nc(SCC(=O)Nc2ccccc2OC)[nH]c1=O` [Compound 4a, 2-[(4-cyclohexyl-5-ethyl-6-oxo-1,6-dihydropyrimidin-2-yl)thio]-N-(2-methoxyphenyl)acetamide], the EC50 in the series on ZIKV (setting [3]) is > 50 µM. Moreover, in series [1], the CC50 at 96 h is > 200 µM.
`CCc1c(C2CCCCC2)nc(SCC(=O)Nc2cccc(F)c2)[nH]c1=O` [Compound 4i, 2-[(4-cyclohexyl-5-ethyl-6-oxo-1,6-dihydropyrimidin-2-yl)thio]-N-(3-fluorophenyl)acetamide] showed a melting point of 184 to 187 °C. In addition, the “SI (selectivity index, CC50/EC50 ratio)” value with ZIKV is given as >10.33. Moreover, the EC50 in the series on ZIKV (setting [3]) turned out to be 19.4 ± 0.38 µM. For the same compound, the CC50 at 96 h in series [1] is > 200 µM.
In turn, `CCc1c(C2CCCCC2)nc(SCC(=O)Nc2ccc(F)cc2)[nH]c1=O` [Compound 4k, 2-[(4-cyclohexyl-5-ethyl-6-oxo-1,6-dihydropyrimidin-2-yl)thio]-N-(4-fluorophenyl)acetamide] came in with a melting point of 273 to 274 °C. Moreover, the EC50 with ZIKV (setting [3]) was > 50 µM. Besides, in series [1], the CC50 at 96 h was > 200 µM.
Turning to `CCc1c(CC2CCCCC2)nc(SCC(=O)Nc2cc(F)ccc2OC)[nH]c1=O` [Compound 4z, 2-{[4-(cyclohexylmethyl)-5-ethyl-6-oxo-1,6-dihydropyrimidin-2-yl]thio}-N-(5-fluoro-2-methoxyphenyl)acetamide], the melting point lay within 182 to 183 °C. Besides, in the series with ZIKV (setting [4]), the “EC50 (anti-ZIKV activity, plaque formation)” value is recorded as “did not show activity” and the EC50 was > 50 µM. In addition, the CC50 in the series with Vero cells is > 200 µM.
In the case of `CCc1c(C2CCCCC2)nc(SCC(=O)Nc2cccc(OC)c2)[nH]c1=O` [Compound 4c, 2-[(4-cyclohexyl-5-ethyl-6-oxo-1,6-dihydropyrimidin-2-yl)thio]-N-(3-methoxyphenyl)acetamide], the melting point lay within 207 to 209 °C. For the same compound, the EC50 in the series on ZIKV (setting [3]) is > 50 µM. The CC50 at 96 h in series [1] came out at 109 ± 3.19 µM.
In turn, `CCc1c(C2CCCCC2)nc(SCC(=O)Nc2cc(F)ccc2F)[nH]c1=O` [Compound 4u, 2-[(4-cyclohexyl-5-ethyl-6-oxo-1,6-dihydropyrimidin-2-yl)thio]-N-(2,5-difluorophenyl)acetamide] yielded a melting point of 190 to 192 °C. Besides, the EC50 in the series with ZIKV (setting [3]) was > 50 µM. Also, the CC50 at 96 h in series [1] was > 200 µM.
In turn, `CCc1c(C2CCCCC2)nc(SCC(=O)Nc2ccc(F)cc2F)[nH]c1=O` [Compound 4s, 2-[(4-cyclohexyl-5-ethyl-6-oxo-1,6-dihydropyrimidin-2-yl)thio]-N-(2,4-difluorophenyl)acetamide] came in with a melting point of 227 to 229 °C. Besides, the EC50 in the series on ZIKV (setting [3]) is > 50 µM. The CC50 at 96 h in series [1] was > 200 µM.
As to `CCc1c(C2CCCCC2)nc(SCC(=O)Nc2ccc(OC)cc2)[nH]c1=O` [Compound 4e, 2-[(4-cyclohexyl-5-ethyl-6-oxo-1,6-dihydropyrimidin-2-yl)thio]-N-(4-methoxyphenyl)acetamide], in the series with ZIKV (setting [3]), the EC50 is > 50 µM. Also, in series [1], the CC50 at 96 h is > 200 µM.
With `NC(=O)c1ncn([C@@H]2O[C@H](CO)[C@@H](O)[C@H]2O)n1` [Ribavirin, reference compound], the “SI (selectivity index, CC50/EC50 ratio)” value with ZIKV is >4.09. The EC50 with ZIKV (setting [3]) came to 48.9 ± 3.42 µM. Besides, the CC50 at 96 h in series [1] is > 200 µM.
Turning to `CCc1c(CC2CCCCC2)nc(SCC(=O)C(O)c2ccc(F)cc2)[nH]c1=O` (stereo not shown) [compound B, reference compound], the CC50 in series [2] was 196 µM. In the series with HCV, the EC50 is 2.02 µM.
`CCc1c(C2CCCCC2)nc(SCC(=O)Nc2ccccc2F)[nH]c1=O` [Compound 4g, 2-[(4-cyclohexyl-5-ethyl-6-oxo-1,6-dihydropyrimidin-2-yl)thio]-N-(2-fluorophenyl)acetamide]: the melting point was in the range of 206 to 208 °C. Also, the “SI (selectivity index, CC50/EC50 ratio)” value with ZIKV is recorded as >12.27. Also, the EC50 in the series on ZIKV (setting [3]) came out at 16.3 ± 1.31 µM. Further, in series [1], the CC50 at 96 h is > 200 µM.
As for Heparin, the “inhibition of ZIKV RdRp activity” value at ZIKV RdRp was “significantly inhibited”.
